Experimental data reported in patent US10407445B2, “Hepatitis C virus inhibitors” (ENANTA PHARMACEUTICALS, INC., priority 2013, dated 2019).

Experiments:
Format in all cases: cell-based
[1] = test system: GT1a replicon encoding NS5A mutation M28T; test: Transient replication assay, GT1a replicon with NS5A mutation M28T; details: Hepatitis C virus, read-out: EC50 1a M28T
HCV GT 1a replicon = test: HCV replicon assay, stable GT 1a replicon (Renilla luciferase); details: Hepatitis C virus, GT1A; HCV GT 1a replicon, 72 h; read-out: EC50 1a
Experimental: (§1) The activity of compounds was determined against HCV replicons representing genotypes (GT) 1a, 1b, 2a, and 3a. To generate stable Huh-7.5-based cell lines, HCV replicons were engineered to express the Renilla luciferase reporter (hRluc) fused to the neomycin phosphotransferase (Neo) gene. GT2a and GT3a HCV replicons were based on the JFH-1 subgenomic replicon (Kato et al. 2003 Gastroenterology, 125:1808-1817), in which the NS5A gene was replaced with that of strains J6 and S52 (GT2a and G3a, respectively). The activity of compounds against GT1a replicons encoding NS5A mutations (M28T, Q30R, L31M, Y93C, and Y93H) was also determined in a transient replication assay. The parental GT1a and GT2a replicons (pH/SG-Neo(L+I) and pSG-Neo-JFH1, respectively) were licensed from Apath LLC (Saint Louis, Mo.). The parental GT 1b replicon (pFKi389lucubineo_3_3′_ET) was licensed from ReBLikon GmbH (Germany). HCV replicons were constructed by standard molecular biology techniques described below. All replicon constructs were verified by restriction enzyme digestion and DNA sequencing.
pH/SG-Neo(L+I) was modified to add the firefly luciferase reporter gene and additional adaptive mutations by replacing the pH/SG-Neo(L+I) NS3-NS5A coding region with the corresponding sequence of pH77-S, creating pH/SG-lucubineo-H77S as described (Borawski J et al. 2009, J Virol 83: 10058-10074). Subsequently, the firefly luciferase-Neo cassette was replaced with the hRluc-Neo cassette. To create a unique cloning site, the NotI restriction site in NS5B was removed using QuickChange II XL Site-Directed Mutagenesis Kit (Agilent) and the following primers: NotI KO Fwd 5′-CTCAAACTCACTCCAATAGCTGCCGCTGGCCGGCTGGAC-3′(G→T mutation removing NotI site underlined) (SEQ. ID No. 1) and NotI KO Rev 5′-GTCCAGCGGGCCAGCGGCAGCTATTGGAGTGAGTTTGAG-3′(C→A mutation removing NotI site underlined) (SEQ. ID No. 2). The resulting vector, pH/SG-lucubineo-H775-NotIKO, was sequenced to confirm the NS5B gene. The hRluc-Neo cassette was PCR amplified from pF9 cytomegalovirus (CMV) hRluc-Neo Flexi(R) (Promega) using Accuprime Super Mix II (Invitrogen) and the following primers, which introduce restriction sites: […]
The amplification product was subcloned into pCR2.1-TOPO (Invitrogen). The resulting plasmid was digested with AscI and NotI, and the excised hRluc-Neo fragment was ligated using the Promega Rapid Ligation Kit (Promega) into pH/SG-lucubineo-H775-NotIKO digested with the same enzymes.
Stable HCV replicon cell lines were grown in complete media (Dulbecco's modified Eagle medium [DMEM], 2 mM L-glutamine, 0.1 mM essential amino acids, 1 mM sodium pyruvate, 10% heat inactivated fetal bovine serum) with the addition 500 μg/ml […] (G418). Huh7-lunet cells were maintained in the same medium without the addition of G418. Cells were routinely passaged at a dilution of 1:4 two times a week. The assay medium for both luciferase reporter HCV replicon and cytotoxicity assays used phenol red-free DMEM and lacked G418. For each stable replicon assay, a sixteen point half-log dilution series of compound was stamped (0.5 ul compound per well) into three replica 384-well plates, to which cells were added directly (4000 cells/well). For the transient replication assay, Huh7-lunet cells in ice-cold phosphate buffered saline (PBS) were electroporated (BioRad electroporator; 950 uF, 270V) with 10 ug purified in vitro transcribed HCV replicon RNA, followed by resuspension in complete media and plating (8000 cells/well) into compound stamped 384-well plates. Luciferase activity of compound-treated cells was measured relative to DMSO-treated cells after 72 h incubation using RENILLA-GLO™ Luciferase Assay (Promega). Cytotoxicity (CC50) in the GT1b replicon cell line was analyzed using CELL TITER-GLO™ (Promega). […]

HCV GT 1b replicon = test: HCV replicon assay, stable GT 1b replicon (Renilla luciferase); details: Hepatitis C virus, GT1B, 72 h
Experimental: as §1
The hRluc-Neo cassette was PCR amplified from pF9 cytomegalovirus (CMV) hRluc-Neo Flexi(R) (Promega) using Accuprime Super Mix II (Invitrogen) and the following primers, which introduce restriction sites: […]
The amplification product was subcloned into pCR2.1-TOPO (Invitrogen). The resulting plasmid was digested with AscI and NotI, and the excised hRluc-Neo fragment was ligated using the Roche Quick Ligation Kit (Roche) into pFKi389lucubineo_3_3′_ET digested with the same enzymes.
Stable HCV replicon cell lines were grown in complete media (Dulbecco's modified Eagle medium [DMEM], 2 mM L-glutamine, 0.1 mM essential amino acids, 1 mM sodium pyruvate, 10% heat inactivated fetal bovine serum) with the addition 500 μg/ml […] (G418). Huh7-lunet cells were maintained in the same medium without the addition of G418. Cells were routinely passaged at a dilution of 1:4 two times a week. The assay medium for both luciferase reporter HCV replicon and cytotoxicity assays used phenol red-free DMEM and lacked G418. For each stable replicon assay, a sixteen point half-log dilution series of compound was stamped (0.5 ul compound per well) into three replica 384-well plates, to which cells were added directly (4000 cells/well). For the transient replication assay, Huh7-lunet cells in ice-cold phosphate buffered saline (PBS) were electroporated (BioRad electroporator; 950 uF, 270V) with 10 ug purified in vitro transcribed HCV replicon RNA, followed by resuspension in complete media and plating (8000 cells/well) into compound stamped 384-well plates. Luciferase activity of compound-treated cells was measured relative to DMSO-treated cells after 72 h incubation using RENILLA-GLO™ Luciferase Assay (Promega). Cytotoxicity (CC50) in the GT1b replicon cell line was analyzed using CELL TITER-GLO™ (Promega).
The compounds of the present invention can be effective against the HCV 1b genotype. It should also be understood that the compounds of the present invention can inhibit multiple genotypes of HCV. In one embodiment compound of the present invention are active against the 1a, 1b, 2a, 2b, 3a, 4a, and 5a genotypes. In another embodiment compound of the present invention are active against the HCV resistant mutants. […] EC50s are in pM against HCV GT 1a and GT 1b; and nM against GT 2a-J6, GT 3a and GT1a resistant variants (M28T, Q30R, L31V, Y93C and Y93H).

[2] = test system: GT1a replicon encoding NS5A mutation Q30R; test: Transient replication assay, GT1a replicon with NS5A mutation Q30R; details: Hepatitis C virus, read-out: EC50 1a Q30R
[3] = test system: GT1a replicon encoding NS5A mutation Y93H; test: Transient replication assay, GT1a replicon with NS5A mutation Y93H; details: Hepatitis C virus, read-out: EC50 1a Y93H
[4] = test system: GT1a replicon encoding NS5A mutation Y93C; test: Transient replication assay, GT1a replicon with NS5A mutation Y93C; details: Hepatitis C virus, read-out: EC50 1a Y93C
[5] = test system: GT1a replicon encoding NS5A mutation L31V; test: Transient replication assay, GT1a replicon with NS5A mutation L31V; details: Hepatitis C virus, read-out: EC50 1a L31V

| Structure (SMILES) | EC50 [1] [nM] | EC50 (HCV GT 1a replicon) [nM] | EC50 (HCV GT 1b replicon) [nM] | EC50 [2] [nM] | EC50 [3] [nM] | EC50 [4] [nM] | EC50 [5] [nM] |
| --- | --- | --- | --- | --- | --- | --- | --- |
| COC(=O)N[C@H](C(=O)N1[C@H](c2nc3ccc4cc(-c5ccc(-c6cnc([C@@H]7C[C@@]8(CCCOC8)CN7C(=O)[C@@H](NC(=O)OC)C7C[C@@H](C)O[C@H](C)C7)[nH]6)cc5)ccc4c3[nH]2)C[C@@H]2CCC[C@@H]21)C(C)C (some centres unmarked) [Compound 43] | 0.04 | 0.015 | 0.023 | 0.03 | 2 | 0.04 | 0.06 |
| COC(=O)N[C@H](C(=O)N1[C@H](c2ncc(-c3ccc(-c4ccc(-c5cnc([C@@H]6C[C@@]7(CCCOC7)CN6C(=O)[C@@H](NC(=O)OC)C6C[C@@H](C)O[C@H](C)C6)[nH]5)cc4)cc3)[nH]2)C[C@@H]2CCC[C@@H]21)C(C)C (some centres unmarked) [Compound 45] | 0.04 | 0.023 | 0.028 | 0.03 | 8 | 0.3 | 0.06 |
